Source: publication PMC3152620 (Peptides, 2011)
No end group written: not given here.

Target: human NMB receptor (Homo sapiens, UniProt P28336)
Assay: Binding to hNMB receptors, both cell lines
Conditions: relative to the natural ligand NMB

Sequence of human NMB receptor (P28336 whole entry): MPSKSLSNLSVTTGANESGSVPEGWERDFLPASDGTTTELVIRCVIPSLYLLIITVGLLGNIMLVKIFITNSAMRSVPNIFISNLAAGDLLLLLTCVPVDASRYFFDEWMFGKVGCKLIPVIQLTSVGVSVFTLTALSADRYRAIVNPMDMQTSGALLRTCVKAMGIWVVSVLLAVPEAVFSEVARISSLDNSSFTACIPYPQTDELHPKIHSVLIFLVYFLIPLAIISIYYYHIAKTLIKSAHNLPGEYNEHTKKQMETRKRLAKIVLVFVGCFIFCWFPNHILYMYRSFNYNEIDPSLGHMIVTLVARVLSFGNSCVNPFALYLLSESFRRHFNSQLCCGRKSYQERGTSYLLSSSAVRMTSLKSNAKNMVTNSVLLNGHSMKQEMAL

LSWDLPEPRSRAGKIRVHPRGNLWATGHFM-NH2 [NMB30, Neuromedin B (1–30)]
Fold lower affinity for human NMB receptor than NMB: > 3 fold
